No end group written: not given here.
Tests used:
δPKC = target: T1, δPKC (Mus musculus, UniProt P28867); assay: MARCKS phosphorylation in wild-type fibroblasts (Western blot); format: cell-based; conditions: 20% serum, peptides conjugated to TAT47-57, relative to control peptide
T1 construct: endogenous in cells; host or cells: primary fibroblasts from wild-type mice
Source text: (§1) Fibroblasts were isolated from wild-type or δPKC knockout mice (provided by Dr. Robert Messing, Gallo Center, UCSF) as previously described (Disatnik et al., 2004, J. Cell Sci., 117:4469-4479) and maintained in 20% fetal bovine serum.
(§2) Phosphorylation of myristoylated alanine-rich C kinase substrate (MARCKS), a ubiquitous PKC substrate, was monitored by Western blot of total cell lysates, using anti-phosphorylated MARCKS (Cell Signaling, Danvers, Mass.). Anti-MARCKS and anti-δPKC antibodies were obtained from Santa Cruz Biotechnology (Santa Cruz Biotechnology, CA, USA).
(§3) The ΨPDK sequence is found both in PDK and in the PDK-cognate protein, δPKC. It was therefore predicted that ΨPDK mimics inhibitory intra-molecular interaction, and, similar to ΨδRACK, ΨPDK should compete with the inhibitory interaction of PDK and δPKC, and increase δPKC-mediated functions (FIG. 1A). Phosphorylation of myristoylated alanine-rich C-kinase substrate (MARCKS) was used as a marker of PKC activity (Disatnik et al., 2004, J. Cell. Sci., 117:4469-4479). […] To determine the selectivity of the peptides for δPKC, fibroblasts derived from δPKC knock-out mice were also used.

hearts subjected to I/R = assay: Ex vivo cardiac protection from ischemia/reperfusion (Langendorff; infarct size, CPK release); set-up: species or system rat; conditions: for CPK (u/L) / protection from I/R injury: ex vivo I/R; for CPK (u/L): release into perfusate, 1 μM peptide; for cardioprotection / biological activity in ex vivo I/R model (in words): CPK release and JNK phosphorylation as markers; for protection from I/R injury: n=6
Procedure: An ex vivo model of acute ischemic heart damage was used, which involves a 30 min equilibration period, followed by 30 min of global ischemia, which in turn is followed by 60 min of reperfusion. The hearts were perfused with 1 μM TAT or TAT-conjugated peptide. Normoxic control hearts were subjected to 90 min perfusion in the absence of ischemia. Coronary effluent was collected to determine creatine phosphokinase (CPK) release during the first 30 min of the reperfusion period. At the end of the reperfusion period, hearts were sliced into 1-mm-thick transverse sections and incubated in triphenyltetrazolium chloride solution (TTC, 1% in phosphate buffer, pH 7.4) at 37° C. for 15 min. Infarct size was expressed as a percentage of the risk zone (equivalent to total LV muscle mass) (methods described in Brandman et al., 2007, J. Biol. Chem., 282:4113-4123; Inagaki et al., 2003, Circulation, 108:869-875). […]
(§4) First, I/R-induced infarct size after treatment with ΨPDK or δV1-1 (Inagaki et al., 2003, Circulation, 108:869-875), was smaller than that in hearts treated with the control peptide or with ΨδRACK, the δPKC-specific activator or with δV1-5 (FIG. 6A). Second, similar data were obtained when determining the levels of released creatine phosphokinase (CPK), as a marker of myocardial infarction; CPK levels in the ΨPDK- or δV1-1-treated hearts were similar and were lower than those after treatment with control peptide, ΨδRACK or δV1-5 (FIG. 6B).
(§5) To begin determining the contribution of each of the amino acids on the effect of the peptide, Alanine scanning was used (Brunel et al., 2006, J. Virol., 80:1680-1687; Chen et al., J. Pep. Res., 2000, 56:147-156; Brems et al., 1992, Prot. Eng., 5:527-533) (substituting individual amino acid with an alanine). The resultant ΨPDK peptide analogs were then used in the same model of myocardial infarction, using CPK release and JNK phosphorylation as markers for cardiac injury. CPI release into the perfusates and pJNK in the hearts were determined after I/R in the presence of respective peptides and compared to the levels in hearts subjected to I/R in the presence of the control peptide. None of the peptides having a substitution had any significant biological activity (Table 1).

JNK = JNK phosphorylation in hearts subjected to I/R (Western blot); set-up: species or system rat; conditions: ex vivo I/R hearts, 1 μM peptide
Procedure: An ex vivo model of acute ischemic heart damage was used, which involves a 30 min equilibration period, followed by 30 min of global ischemia, which in turn is followed by 60 min of reperfusion. The hearts were perfused with 1 μM TAT or TAT-conjugated peptide. Normoxic control hearts were subjected to 90 min perfusion in the absence of ischemia. Coronary effluent was collected to determine creatine phosphokinase (CPK) release during the first 30 min of the reperfusion period. At the end of the reperfusion period, hearts were sliced into 1-mm-thick transverse sections and incubated in triphenyltetrazolium chloride solution (TTC, 1% in phosphate buffer, pH 7.4) at 37° C. for 15 min. Infarct size was expressed as a percentage of the risk zone (equivalent to total LV muscle mass) (methods described in Brandman et al., 2007, J. Biol. Chem., 282:4113-4123; Inagaki et al., 2003, Circulation, 108:869-875).
Rat hearts were homogenized in a buffer containing 210 mM mannitol, 70 mM sucrose, 5 mM MOPS and 1 mM EDTA followed by isolation of the mitochondria fraction (described in Churchill et al., 2008, J. Mol. Cell. Cardiol., 46:278-284) and identified by the presence of VDAC (MitoSciences, Eugene, Oreg., USA). The level of phosphorylated and unphosphorylated JNK1/2 was analyzed in the total fraction using respective specific antibodies (Cell Signaling, Danvers, Mass. and Santa Cruz Biotechnology, CA, USA).
as §4, §5

[1] = tested on: fibroblasts derived from δPKC knock-out mice; assay: MARCKS phosphorylation in fibroblasts from δPKC knock-out mice; format: cell-based, mouse; conditions: fibroblasts lacking δPKC
Source text: as §1, §2, §3

T1 sequence (P28867 whole entry): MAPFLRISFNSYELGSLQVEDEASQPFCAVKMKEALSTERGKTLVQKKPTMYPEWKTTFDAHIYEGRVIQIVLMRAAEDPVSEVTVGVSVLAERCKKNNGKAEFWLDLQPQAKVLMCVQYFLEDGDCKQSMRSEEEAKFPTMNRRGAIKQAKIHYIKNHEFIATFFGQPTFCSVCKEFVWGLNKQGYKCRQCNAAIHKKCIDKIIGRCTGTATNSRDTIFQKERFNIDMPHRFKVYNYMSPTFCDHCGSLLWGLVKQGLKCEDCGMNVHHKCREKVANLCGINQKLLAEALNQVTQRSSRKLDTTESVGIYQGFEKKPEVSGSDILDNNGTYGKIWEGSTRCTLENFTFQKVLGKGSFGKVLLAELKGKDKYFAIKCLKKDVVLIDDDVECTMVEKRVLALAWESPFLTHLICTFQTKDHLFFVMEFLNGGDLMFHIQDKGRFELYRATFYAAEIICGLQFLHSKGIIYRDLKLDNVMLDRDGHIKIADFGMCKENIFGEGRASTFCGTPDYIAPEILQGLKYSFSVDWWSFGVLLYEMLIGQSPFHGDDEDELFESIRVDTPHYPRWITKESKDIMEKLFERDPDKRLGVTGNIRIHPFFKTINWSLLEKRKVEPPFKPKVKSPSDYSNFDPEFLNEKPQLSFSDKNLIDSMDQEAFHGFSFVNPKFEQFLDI

Compound	CPK (u/L) (hearts subjected to I/R)	p-JNK/total JNK (JNK)	other results
CCCCCCCCCCCCCC(=O)O[C@@H]1[C@@H](C)[C@@]2(O)[C@@H](C=C(CO)C[C@]3(O)C(=O)C(C)=C[C@@H]23)[C@@H]2C(C)(C)[C@]12OC(C)=O [PMA, Phorbol 12-myristate 13-acetate, reference compound]	–	–	MARCKS phosphorylation (δPKC): caused increased MARCKS phosphorylation
AASTER [p192]	1272 ± 172	0.7 ± 0.10	–
ALATER [p193]	1155 ± 299	0.7 ± 0.03	–
ALS(p)T(p)ER [p199]	842 ± 258	0.6 ± 0.02	cardioprotection / biological activity in ex vivo I/R model (in words) (hearts subjected to I/R): None of the phosphorylated peptides (p197, 198, 199) affected cardioprotection
ALS(p)TER [p198]	1169 ± 293	0.9 ± 0.10	cardioprotection / biological activity in ex vivo I/R model (in words) (hearts subjected to I/R): None of the phosphorylated peptides (p197, 198, 199) affected cardioprotection
ALSAER [p194]	886 ± 211	0.6 ± 0.10	–
ALST(p)ER [p197]	803 ± 131	0.7 ± 0.10	cardioprotection / biological activity in ex vivo I/R model (in words) (hearts subjected to I/R): None of the phosphorylated peptides (p197, 198, 199) affected cardioprotection
ALSTAR [p195]	913 ± 199	0.7 ± 0.10	–
ALSTEA [p196]	926 ± 265	0.9 ± 0.10	–
GKTLVQ (not fully specified (C-terminus); also: TAT47-57 conjugated via disulfide to C-terminal Cys) [δV1-5, reference compound]	–	–	MARCKS phosphorylation (δPKC): increased MARCKS phosphorylation; MARCKS phosphorylation [1]: increased MARCKS phosphorylation
YGRKKRRQRRRGSGALSTER [TAT-GSG-ΨPDK]	–	–	protection from I/R injury (hearts subjected to I/R): 73%
ΨPDK-Cs-sC-TAT: SEQ ID NO. 2 linked to SEQ ID NO. 33 (TAT) via a disulfide bond (chain 1 ALSTER; chain 2 YGRKKRRQRRR; not fully specified; disulfide bond linkage)	–	–	protection from I/R injury (hearts subjected to I/R): 45%

Reference: patent publication US10131691B2, “Compositions and methods for specific regulation of pyruvate dehydrogenase kinase” (THE BOARD OF TRUSTEES OF THE LELAND STANFORD JUNIOR …, priority 2011, dated 2018)
